{"source": "patent US20190322643A1", "about": "(Georgia State University Research Foundation, Inc., priority 2016, published 2019)", "biological_target": "T1, G9a (Homo sapiens, UniProt Q96KQ7)", "T1 construct": "endogenous in cells; host or cells: MDA-MB-231", "T1 sequence (Q96KQ7 1-1210)": "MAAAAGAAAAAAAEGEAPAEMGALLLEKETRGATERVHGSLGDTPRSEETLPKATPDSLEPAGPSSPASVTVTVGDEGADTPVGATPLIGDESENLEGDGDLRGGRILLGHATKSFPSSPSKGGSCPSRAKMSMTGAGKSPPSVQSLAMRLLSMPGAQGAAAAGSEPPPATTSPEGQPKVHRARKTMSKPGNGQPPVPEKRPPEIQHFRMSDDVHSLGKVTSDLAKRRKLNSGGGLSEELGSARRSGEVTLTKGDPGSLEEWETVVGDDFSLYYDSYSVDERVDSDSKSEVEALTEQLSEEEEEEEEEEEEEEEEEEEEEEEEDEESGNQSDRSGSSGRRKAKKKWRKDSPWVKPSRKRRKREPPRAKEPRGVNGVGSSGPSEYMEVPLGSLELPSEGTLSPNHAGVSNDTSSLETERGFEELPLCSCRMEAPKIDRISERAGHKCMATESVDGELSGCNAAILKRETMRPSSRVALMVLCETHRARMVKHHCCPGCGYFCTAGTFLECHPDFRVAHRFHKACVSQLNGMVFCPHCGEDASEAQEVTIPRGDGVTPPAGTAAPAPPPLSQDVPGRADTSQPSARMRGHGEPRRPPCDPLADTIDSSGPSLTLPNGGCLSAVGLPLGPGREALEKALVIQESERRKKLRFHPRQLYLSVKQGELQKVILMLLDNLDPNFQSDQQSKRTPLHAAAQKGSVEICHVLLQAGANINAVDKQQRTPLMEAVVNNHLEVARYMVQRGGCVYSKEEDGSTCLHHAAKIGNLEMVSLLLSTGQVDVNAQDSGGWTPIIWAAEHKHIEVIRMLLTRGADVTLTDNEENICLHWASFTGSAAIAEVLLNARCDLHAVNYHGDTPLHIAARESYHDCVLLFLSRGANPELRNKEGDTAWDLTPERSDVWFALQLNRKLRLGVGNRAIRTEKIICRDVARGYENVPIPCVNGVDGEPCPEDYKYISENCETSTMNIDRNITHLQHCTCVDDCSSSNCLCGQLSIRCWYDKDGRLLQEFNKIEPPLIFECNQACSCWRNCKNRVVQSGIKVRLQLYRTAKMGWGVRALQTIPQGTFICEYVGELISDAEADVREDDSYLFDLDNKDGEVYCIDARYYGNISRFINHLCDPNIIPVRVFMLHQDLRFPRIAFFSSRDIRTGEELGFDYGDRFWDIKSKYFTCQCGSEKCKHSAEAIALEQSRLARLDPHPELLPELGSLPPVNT", "assay": "H3K9Me2 cell immunofluorescence in-cell Western (ICW) assay", "format": "cell-based", "settings": "MDA-MB-231 cell line, 48 h"}
{"smiles": "CN1CCCN(c2nc(NC3CCN(Cc4ccccc4)CC3)c3ccc(OCCCCCCC(=O)NO)cc3n2)CC1", "note": "[Compound 30]", "values": [{"measurement": "IC50", "value": "> 100", "unit": "µM"}]}
